Measurements published in US20230139328A1, “DOSAGE FORMS FOR IMPROVING ORGAN TRANSPLANTATION, GRAFT VERSUS HOST DISEASE AND STEM CELLS TRANSPLANTS” (Aphios Corporation, priority 2020, published 2023).
Entries after “also recorded” stand apart in the source; their conditions may differ.

Columns and labels:
neutrophil migration = assay: Neutrophil migration induced by 24 h TNF-α pretreatment combined with a 100 nM LTB4 gradient; assay type: cell-based, human; conditions: 24 h TNF-α pretreatment and 100 nM LTB4 gradient; data not shown
Protocol: Migration Assays: At confluency HMECs were treated for 1 h at 37° C. with Bryostatin-1 (10 nM, 100 nM) in MCDB-131 media or MCDB-131 media alone. Inserts were washed three times with Hank's Balanced Salt Solution (HBSS) (to eliminate drug effects on the neutrophils) and placed in a new plate containing either 500 μL 100 nM LTB4, or HBSS alone for control. 500 μL HBSS was then added to the top well and spiked with 500,000 neutrophils. For TNF-α experiments, HMECs were left in 20 ng/ml TNF-α in MCDB-131 for 24 h TNF-α was removed and HMECs washed three times. HMECs were treated for 1 h with Bryostatin-1 in endothelial growth medium (EGM) (10 nM, 100 nM). The drug was removed, and cells were washed three times. […] Neutrophils were allowed to migrate for 3 h at 37° C. Migration was stopped by removing the inserts and migration was measured using the myeloperoxidase (MPO) assay.
Myeloperoxidase Assay: Neutrophil migration was measured using myeloperoxidase (MPO) analysis. […] The supernatant was removed, and MPO activity was measured using TMB/peroxide as chromogen. The reaction was stopped with sulfuric acid and absorbance was read at 450 nm using a microplate reader. […] Data was expressed as “% neutrophil migration”, which allowed cumulative statistical analysis to be done and account for unpreventable batch-to-batch variations.

[1] = cited from earlier work
transplanted kidney = assay: Porcine kidney auto-transplantation model (20 h cold storage, reperfusion); assay type: in vivo, German Landrace pigs; conditions: pig
Protocol: We used the porcine kidney auto-transplantation model with the modified PET formulation of Bryostatin-1 in thirty-two female German Landrace pigs weighing 20 to 40 kg. Briefly, animals had surgery for graft retrieval followed by a standard graft cold storage time (CST) of 20 h. During CST, kidneys were preserved with histidine-tryptophan-ketoglutarate (HTK)-solution either supplemented with 100 nM Bryostatin-1 or an equivalent volume of placebo (PET formulation). Donor animals then had surgery again for renal auto-transplantation and the graft was transplanted orthotopically. Thus, the contralateral kidney was removed to measure specifically function of the transplanted kidney. Time of reperfusion was 8 h and sample collection included cortical renal biopsies, tissue block samples at the end of the study and blood as well as urine analyses.

[2] = system: PKC-δ siRNA nucleofected HUVEC; assay: LTB4 mediated neutrophil migration across PKC-δ siRNA nucleofected HUVEC; assay type: cell-based, human; conditions: 100 nM, 1 h; PKC-δ knockdown
From the text: Because studies in FIG. 8 could not discriminate between PKC-δ and […] isoforms mediating the effect of Bryostatin-1, we knocked down individual isoforms using siRNA technology. In order to verify that we could knock down particular isoforms of PKC, specifically PKC-8 and PKC-ε isoforms in HUVEC, siRNA which selectively bind to and eliminate human PKC-8 and PKC-ε mRNAs were nucleofected into HUVEC prior to migration studies. […] HUVEC cells treated using these approaches were then subjected to chemotaxis studies with Bryostatin-1 to elucidate the mechanism of Bryostatin-1 mediated inhibition of LTB4 induced PMN migration.
Neutrophil Transendothelial Migration (TEM) Restoration Studies: HUVECs were pretreated with Go-6983 (1, 10, 100 nM), or Go-6976 (1, 10,100 nM) for 30 minutes, then spiked with 100 nM Bryostatin-1 for 1 hour. […] Migration was stopped by removing the inserts and migration was measured using the MPO assay.
Myeloperoxidase Assay: Neutrophil migration was measured using myeloperoxidase (MPO) analysis. […] The supernatant was removed, and MPO activity was measured using TMB/peroxide as chromogen. The reaction was stopped with sulfuric acid and absorbance was read at 450 nm using a microplate reader. […] Data was expressed as “% neutrophil migration”, which allowed cumulative statistical analysis to be done and account for unpreventable batch-to-batch variations. […]

[3] = system: neutrophil migration across HUVEC; assay: Neutrophil transendothelial migration (TEM) restoration studies with PKC inhibitors in HUVEC; assay type: cell-based, human; conditions: 100 nM Bryostatin-1, 100 nM LTB4, 3 h
Protocol: HUVEC were pretreated with G0-6983, a PKC inhibitor with dose dependent specificities for classical vs. novel PKC isoforms for 30 minutes prior to addition of Bryostatin-1 (100 nM) to block neutrophil migration. […] Neutrophil migration towards 100 nM LTB4 was initiated by adding LTB4 to the lower well.
Neutrophil Transendothelial Migration (TEM) Restoration Studies: HUVECs were pretreated with Go-6983 (1, 10, 100 nM), or Go-6976 (1, 10,100 nM) for 30 minutes, then spiked with 100 nM Bryostatin-1 for 1 hour. HUVECs previously nucleofected with PKC-δ, -ε, or control siRNA were just treated in Bryostatin-1 for 1 hour. HUVECs were washed three times and placed in a new plate containing either 500 IL 100 nM LTB4, or HBSS alone for control. Neutrophils were allowed to migrate for 3 h at 37° C. Migration was stopped by removing the inserts and migration was measured using the MPO assay.
Myeloperoxidase Assay: Neutrophil migration was measured using myeloperoxidase (MPO) analysis. Cell culture inserts were first removed, and plates were spun at 1,500 RPM for 5 min. The supernatant was removed, and MPO activity was measured using TMB/peroxide as chromogen. The reaction was stopped with sulfuric acid and absorbance was read at 450 nm using a microplate reader. All experiments were performed n=6. Data was expressed as “% neutrophil migration”, which allowed cumulative statistical analysis to be done and account for unpreventable batch-to-batch variations.

T84 intestinal epithelia = conditions: cited from earlier work
[4] = HTK-solution with 100 nM Bryostatin-1 during 20 h cold storage vs placebo

| Structure (SMILES) | effect on migration induced by TNF-α pretreatment plus LTB4 gradient (neutrophil migration) | major side effects associated with use ([1]; Phase II trials, combination with other drugs, cancers) | cardiovascular disturbances or edema ([1]; clinical use) | adverse effects at dosing ranges higher than 100 ng/ml plasma level ([1]; healthy subjects and cancer patients) | serum/plasma and urinary inflammatory biomarkers (transplanted kidney; 100 nM Bryostatin-1 in HTK-solution) | kidney histology scores at 6 hours (transplanted kidney; 100 nM Bryostatin-1 in HTK-solution, 6 hours) | kidney ultrastructural damage scores (transplanted kidney; [4]) | neutrophils entering the re-perfused kidney (transplanted kidney; [4]) | effect on LTB4 mediated neutrophil migration in PKC-δ siRNA nucleofected HUVEC [2] | effect on LTB4 induced neutrophil migration, HUVEC [3] | barrier function and TNF-α induced barrier loss (T84 intestinal epithelia) |
| --- | --- | --- | --- | --- | --- | --- | --- | --- | --- | --- | --- |
| CCCCCCCCCCCCCC(=O)O[C@@H]1[C@@H](C)[C@@]2(O)[C@@H](C=C(CO)C[C@]3(O)C(=O)C(C)=C[C@@H]23)[C@@H]2C(C)(C)[C@]12OC(C)=O [PMA, phorbol myristate acetate] | reduced migration | – | – | – | – | – | – | – | – | – | – |
| CCC/C=C/C=C/C(=O)O[C@H]1/C(=C/C(=O)OC)C[C@H]2C[C@H]([C@@H](C)O)OC(=O)C[C@H](O)C[C@@H]3C[C@H](OC(C)=O)C(C)(C)[C@](O)(C[C@@H]4C/C(=C/C(=O)OC)C[C@H](/C=C/C(C)(C)[C@]1(O)O2)O4)O3 [Bryostatin-1] | reduced migration | myalgias, nausea, and vomiting | no cardiovascular disturbances or evidence of edema have been observed | no adverse effects | not altered | significantly improved | significantly reduced | significantly prevented | restored the normal level of neutrophil trans endothelial migration; also recorded: will not inhibit LTB4 mediated neutrophil migration | reversed; also recorded: significantly suppressed LTB4 induced migration | enhances barrier function and inhibits barrier loss induced by TNF-α |
